Key:
[1] = tested on: HIF2α-dependent transcription in 786-O-HRE-Luc cells; test: In vitro cellular hypoxia response element (HRE) reporter gene assay (RGA) for HIF2α; format: cell-based, human; details: Homo sapiens, 24 hours incubation
Summary of the method: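 Renal carcinoma cells carrying a 4×HRE-driven PEST-destabilised firefly luciferase were treated a day after seeding with eleven 2-fold compound dilutions (0.1% DMSO) for 24 h at 37° C. BrightGlo luminescence, background-subtracted and expressed as % of DMSO control, was fitted four-parametrically for IC50.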

[2] = biological target: HIF2α PAS-B domain (236-350, biotinylated on the N-terminus) (Homo sapiens (Human), UniProt Q99814)
HIF2α PAS-B domain (236-350, biotinylated on the N-terminus), sequence (Q99814 236-350): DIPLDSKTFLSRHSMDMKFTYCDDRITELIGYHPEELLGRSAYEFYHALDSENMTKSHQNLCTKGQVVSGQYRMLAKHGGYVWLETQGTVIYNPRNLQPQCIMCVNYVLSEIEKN
Method: The assay buffer contained 50 mM Tris-HCl pH7 (Sigma), 20 mM NaCl (Fluka), 0.02% BSA (Sigma), 0.005% Triton X-100 (Pierce) and 1 mM DTT (Fluka). After a 30 min incubation period, 5 μL Streptavidin PVT SPA Beads (Perkin Elmer) at 1.2 mg/mL, diluted in the buffer, were added.

| Compound | IC50 [1] | IC50 [2] |
| --- | --- | --- |
| FC(F)OC1=CC(C(F)(F)F)=CN2C[C@@]3(CCC(F)(F)c4c3ccnc4Cl)N=C12 [Example 31, (S)-1′-chloro-8-(difluoromethoxy)-8′,8′-difluoro-6-(trifluoromethyl)-7′,8′-dihydro-3H,6′H-spiro[imidazo[1,2-a]pyridine-2,5′-isoquinoline]] | 246 nM | 9 nM |
| FC(F)OC1=CC(C(F)(F)F)=CN2C[C@@]3(CCOc4cc(C(F)(F)F)ccc43)N=C12 [Example 44, (S)-8′-(difluoromethoxy)-6′,7-bis(trifluoromethyl)-3′H-spiro[chroman-4,2′-imidazo[1,2-a]pyridine]] | 112 nM | 13 nM |

— patent US12226405B2, “Compounds and compositions for inhibiting the activity of HIF2-alpha and their methods of use” (Novartis AG, priority 2020, dated 2025)
